Read-outs that look alike come from different tables or passages of the source.

The nature of series [1]: Anti hydroxyl radicals: HO° test with deoxyribose (Fenton's reaction). The note with it: no EDTA; optical density at 532 nm; average of 2 assays. How it is done:
(§1) The anti-free radical (anti-FR) activity has been evaluated by chemical tests for the evaluation of the potential to scavenge free radicals R° (DPPH° test) and hydroxyl radicals HO°. Furthermore the anti-FR activity has been evaluated by biochemical tests to address the potential for scavenging of a kind of reactive oxygen species (ROS), so called superoxide anions (02°).
The hydroxyle radical HO* (formed by H2O2 in presence of Fe++) oxidises deoxyribose, then a pink compound is formed by condensation of thiobarbituric acid with the oxidised form of deoxyribose. The level of oxidised deoxyribose is determined by measurement of the optical density at 532 nm.

For series [2], the target named is Lipoxygenase. In words: Inhibition test on lipoxygenase (released superoxide anions, luminol luminescent probes). The note with it: rate of released superoxide anions; mean of 2 assays. The format is biochemical. How it is done:
The anti-free radical (anti-FR) activity has been evaluated by chemical tests for the evaluation of the potential to scavenge free radicals R° (DPPH° test) and hydroxyl radicals HO°. Furthermore the anti-FR activity has been evaluated by biochemical tests to address the potential for scavenging of a kind of reactive oxygen species (ROS), so called superoxide anions (02°). […] Lipoxygenase was incubated with a specific substrate (unsaturated fatty acid) and the ingredient to be tested. Then the rate of released superoxide anions was evaluated by Luminol luminescent probes. The IC50 (mean of 2 assays) of dihydrosinapinic acid was 0.0002 % (w/v).

The subject of series [3] is Human leukocytes (Polymorphonuclear neutrophilic granulocytes). In words: Anti-inflammatory activity on human leucocytes cultured in vitro (Zymosan-induced respiratory burst, luminol luminescence). The format is cell-based. How it is done: (§2) Human leukocytes (Polymorphonuclear neutrophilic granulocytes) were incubated with dihydrosinapinic acid during 1 day at 37°C under an atmosphere with 5 % carbon dioxide. The respiratory burst was induced by addition of a yeast extract ("Zymosan"). After incubation for 0.5 hours at 37 °C under an atmosphere with 5 % carbon dioxide the cell number was measured using an automatic cell counter and the rate of released reactive oxygen species was recorded by a luminescent reaction with luminol. (Pieper G.M., Gross G.J. EMD 52692 (bimakalim) a new potassium channel opener, attenuates luminol-enhanced chemiluminescence and superoxide anion radical formation by Zymosan-activated polymorphonuclear leukocytes (Immunopharmacology (1992) vol 23, pp 191-197). Table 3

Test in series [4]: as above
The format is cell-based. The note with it: human, leukocytes, % against control, average of 2-3 assays, each carried out 3 times, read-out: Cell number. As to the method: as §2

Series [5] can be described thus: Anti free radicals: DPPH° (diphenylpicryl-hydrazyl) test. To be noted: optical density at 513 nm; average of two assays. As to the method:
as §1
The DPPH° scavenging effect of dihydrosinapinic acid has been measured by recording the optical density at 513 nm (DEBY C. Relation entre les acides gras essentiels et le taux des antioxydants tissulaires chez la souris. SOCIETE BELGE DE BIOLOGIE, séance du 19 décembre 1970, pp: 2675-2680). The IC50 (Inhibitory Concentration 50 %: dose for which 50 % of DPPH° is scavenged, average of two assays) of dihydrosinapinic acid is 0.0006 % (w/v).
For orientation: DPPH is a stable violet radical that fades when it is reduced.

The subject of series [6] is Human fibroblasts. In words: Cytophotoprotection of human fibroblasts against UVA radiation (cell proteins, MDA released). The format is cell-based. To be noted: for activity at 0.01 % strength / activity at 0.03 % strength: Homo sapiens, Fibroblast, light or radiation study, % against control, UVA 20 J/cm2; for activity at 0.01 % strength: dose 0.01 % w/v; for activity at 0.03 % strength: dose 0.03 % w/v. How it is done:
The cytoprotection against UVA irradiation has been evaluated by a test on human fibroblasts because UVA radiation penetrates through the epidermis until the dermis where it induces oxidative stress, mainly by activation of photosensitising biological components, which catalyse the formation of ROS like anion superoxide, hydrogen peroxide and singlet oxygen, and lipoperoxydation of the cell membrane. These oxidative stress effects are evaluated in vitro due to measuring of the level of released malondialdehyde (MDA) (Morlière P., Moisan A., Santus R., Huppe G., Mazière J.C., Dubertret L. UV-A induced lipid peroxydation in cultured human fibroblasts. Biochim. Biophys. Acta (1991) Vol 1084, pp 261-269). The lipoperoxides formed after UVA irradiation undergo a decay into malondialdehyde which can form cross-links between many biological molecules like proteins with inhibition of enzymes and nucleic bases with risk of mutagenesis.
Human fibroblasts were inoculated with growth medium (DMEM+FCS) and incubated 3 days at 37°C, with 5% CO2. The growth medium was then exchanged by a medium containing the ingredient to be tested and was incubated 2 days at 37°C under an atmosphrere with 5 % of carbon dioxide. After the exchange of the medium bya balanced salt solution, the cell culture was irradiated with UVA radiation (20J/cm^2). Cell proteins were measured, and MDA released in the supernatant was determined spectrophotometrically.

Setting [7] is: average of 2 assays, each carried out three times, read-out: Cell proteins.
[8] abbreviates: irradiated control = 100, read-out: MDA released.

Take `COc1cc(CCC(=O)O)cc(OC)c1O` [Dihydrosinapinic acid, 3-(4-hydroxy-3,5-dimethoxyphenyl) propionic acid]: the “IC50 (HO° test with deoxyribose)” value in series [1] was 0.025 % (w/v). The “IC50 (lipoxygenase inhibition)” value in series [2] is 0.0002 % (w/v). In series [3] (Homo sapiens, Leukocyte, % against control, dose 0.0001 % w/v, Zymosan-activated, read-out: Released ROS), the activity at 0.0001 % strength came out at 25%. The activity at 0.0003 % strength in series [3] (Homo sapiens, Leukocyte, % against control, dose 0.0003 % w/v, Zymosan-activated, read-out: Released ROS) was found to be 13%. The “respiratory burst (release of reactive oxygen species)” value in series [3] (result in words, Zymosan-activated polymorphonuclear neutrophilic granulocytes) is “inhibited”. For the same molecule, the values for the viability in series [4] (dose 0.0001 % w/v) and in series [4] (dose 0.0003 % w/v) were 99% and 98%, respectively. In addition, the “IC50 (dose for which 50 % of DPPH° is scavenged)” value in series [5] is 0.0006 % (w/v). Moreover, the activity at 0.01 % strength in series [6] (setting [7]) was 121%; in series [6] (setting [8]) it was 47%. The activity at 0.03 % strength in series [6] (setting [7]) is 140%; in series [6] (setting [8]), 12%. Further, the “protection of the cells against UVA-induced MDA released” value in series [6] (result in words, after incubation of the fibroblasts) was “strong protection”.

For the origin of these results see patent EP1604643A1, “Cosmetic use of derivatives of 3-Phenylpropionic acid” (Cognis France, S.A.S., priority 2004, dated 2005).
